The record followed here is patent US9994547B2, “Heteroarylamide inhibitors of TBK1” (Takeda Pharmaceutical Company Limited, priority 2014, dated 2018).

Structures are written as SMILES.

The target of the assay is Full length human TBK1 (Homo sapiens (Human), UniProt Q9UHD2). The assay can be described thus: Inhibition of TBK1 Enzyme (Example A). The settings on record: -log(IC50), IC50 molar, 3 nM TBK1, 25 μM ATP, 60 min RT. It counts as biochemical. As to the method: Full length human TBK1 with an N-terminal His-tag was cloned into the pFastBacl vector and was transfected into Sf9 cells. 72 hours later the virus was harvested and amplified through two additional rounds of infections. Then 400 mL of the resulting virus stock was used to infect 10 L of Sf9 cells at a density of 2×10^6 cells/mL. Cell pellets were harvested 48 hours post infection and were lysed by freeze-thaw, homogenization and sonication in binding buffer (25 mM Tris pH7.6, 1 M NaCl, 10 mM imidazole, 0.5 mM TCEP) plus 0.1% Triton X-100 and complete protease inhibitor cocktail. The lysate was spun and the supernatant was purified with a HisTrap FF crude and a Superdex 200 pg column.
Chain of Full length human TBK1 (Q9UHD2 whole entry): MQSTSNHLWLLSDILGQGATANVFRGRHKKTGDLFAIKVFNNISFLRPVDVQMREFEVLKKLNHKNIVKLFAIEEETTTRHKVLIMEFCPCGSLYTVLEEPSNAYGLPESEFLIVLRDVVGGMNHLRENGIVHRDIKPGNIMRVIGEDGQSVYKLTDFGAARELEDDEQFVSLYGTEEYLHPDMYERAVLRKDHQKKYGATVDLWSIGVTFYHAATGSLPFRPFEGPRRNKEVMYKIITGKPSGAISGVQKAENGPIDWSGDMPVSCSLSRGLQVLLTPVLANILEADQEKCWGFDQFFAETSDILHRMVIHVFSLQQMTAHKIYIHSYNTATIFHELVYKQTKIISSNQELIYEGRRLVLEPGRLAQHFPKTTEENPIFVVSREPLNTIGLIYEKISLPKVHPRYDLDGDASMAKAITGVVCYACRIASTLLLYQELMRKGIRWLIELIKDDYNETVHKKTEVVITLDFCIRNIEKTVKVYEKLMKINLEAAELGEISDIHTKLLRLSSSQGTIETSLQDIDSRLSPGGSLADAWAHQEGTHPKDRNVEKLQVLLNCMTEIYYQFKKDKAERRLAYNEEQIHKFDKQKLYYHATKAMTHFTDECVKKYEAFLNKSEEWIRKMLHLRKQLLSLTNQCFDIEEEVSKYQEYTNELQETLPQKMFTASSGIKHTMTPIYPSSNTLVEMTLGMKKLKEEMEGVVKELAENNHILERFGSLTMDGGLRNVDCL
TBK1 inhibition is determined using a 384 well plate format in buffer containing 20 mM Hepes, pH 7.4, 10 mM MgCl2, 1 mM EDTA, 0.01% Brij-L23, 1 mM DTT. Each test compound is prepared in DMSO using 2.5-fold serial dilutions for 11 data points, which are added to the buffer so that each dilution contains 1% DMSO. To each well is added 2 μL of 1 μM 5FAM-DRHDSGLDSMKDE-NH2 (in buffer), 2 μL of diluted test compound (1% DMSO in buffer), and 5 μL of 3 nM TBK1 and 25 μM ATP (in buffer). The reaction mixture is incubated at RT for 60 min, and quenched by adding 20 mM Hepes, pH 7.4, 10 mM MgCl2, 1 mM EDTA, 0.01% Brij-L23, 1 mM DTT+25 mM EDTA. To quantify the fluorescent-labeled substrate and product following reaction, the test plate is loaded on a Caliper LC-3000, which measures percent of conversion by microfluidic-based separation. Corresponding IC50 values are calculated by non-linear curve fitting of the compound concentrations and percent of inhibition to the standard IC50 equation and reported as pIC50, i.e., −log(IC50), where IC50 is the molar concentration.

On to `C[C@H](Nc1cc(-c2cnc(NC(=O)C3CC3)cn2)cnc1C#N)C(=O)N(C)[C@H](C)C#N` [Example 88, N-(5-(6-cyano-5-(((S)-1-(((R)-1-cyanoethyl)(methyl)amino)-1-oxopropan-2-yl)amino)pyridin-3-yl)pyrazin-2-yl)cyclopropanecarboxamide], for which the “TBK1 Inhibition (pIC50)” value came out at 7.6.

Turning to `C[C@H](Nc1cc(-c2cnc(NC(=O)C3CC3CO)cn2)cnc1C#N)C(=O)N(C)CC(F)F` (stereo partly drawn) [Example 146, N-(5-(6-cyano-5-(((S)-1-((2,2-difluoroethyl)(methyl)amino)-1-oxopropan-2-yl)amino)pyridin-3-yl)pyrazin-2-yl)-2-(hydroxymethyl)cyclopropanecarboxamide], the “TBK1 Inhibition (pIC50)” value was 8.1.

With `CC1CC1C(=O)Nc1cnc(-c2cnc(C#N)c(NCC(N)=O)c2)cn1` (centres unmarked) [Example 144, N-(5-(5-((2-amino-2-oxoethyl)amino)-6-cyanopyridin-3-yl)pyrazin-2-yl)-2-methylcyclopropanecarboxamide], the “TBK1 Inhibition (pIC50)” value was 5.6.

Consider `C[C@@H](O)[C@@H](Nc1cc(-c2cnc(NC(=O)C3CC3)cn2)cnc1C#N)C(=O)N(C)C` [Example 37, N-(5-(6-cyano-5-(((2R,3R)-1-(dimethylamino)-3-hydroxy-1-oxobutan-2-yl)amino)pyridin-3-yl)pyrazin-2-yl)cyclopropanecarboxamide], for which the “TBK1 Inhibition (pIC50)” value turned out to be 6.9.

On to `N#Cc1ncc(-c2cnc(NC(=O)C3CC3)cn2)cc1NCC(=O)N1CCOC[C@@H]1C(F)(F)F` [Example 101, (R)-N-(5-(6-cyano-5-((2-oxo-2-(3-(trifluoromethyl)morpholino)ethyl)amino)pyridin-3-yl)pyrazin-2-yl)cyclopropanecarboxamide], for which the IC50 (read-out: TBK1 Inhibition (pIC50) (converted)) is 200 nM.

In the case of `CC(=O)N1CCN(C(=O)CNc2cc(-c3cnc(NC(=O)C4CC4)cn3)cnc2C#N)CC1` [Example 99, N-(5-(5-((2-(4-acetylpiperazin-1-yl)-2-oxoethyl)amino)-6-cyanopyridin-3-yl)pyrazin-2-yl)cyclopropanecarboxamide], the “TBK1 Inhibition (pIC50)” value is 6.0.

For `C[C@H](Nc1cc(-c2cnc(NC(=O)C3CC3)cn2)ccc1C#N)C(=O)N1CC(O)C1` [Example 11, (S)-N-(5-(4-cyano-3-((1-(3-hydroxyazetidin-1-yl)-1-oxopropan-2-yl)amino)phenyl)pyrazin-2-yl)cyclopropanecarboxamide], the “TBK1 Inhibition (pIC50)” value was determined as 6.7.

With `N#Cc1ncc(-c2cnc(NC(=O)C3CC3)cn2)cc1NCC(=O)N1CCC[C@@H]1C(F)(F)F` [Example 48, (R)-N-(5-(6-cyano-5-((2-oxo-2-(2-(trifluoromethyl)pyrrolidin-1-yl)ethyl)amino)pyridin-3-yl)pyrazin-2-yl)cyclopropanecarboxamide], the “TBK1 Inhibition (pIC50)” value is on record as 8.2.

Turning to `C[C@H](Nc1cc(-c2cnc(NC(=O)C3CC3)cn2)cnc1C#N)C(=O)NC1CC1(F)F` (stereo partly drawn) [Example 118, N-(5-(6-cyano-5-(((2S)-1-((2,2-difluorocyclopropyl)amino)-1-oxopropan-2-yl)amino)pyridin-3-yl)pyrazin-2-yl)cyclopropanecarboxamide], the “TBK1 Inhibition (pIC50)” value was determined as 6.8.

Regarding `CN(C)C(=O)C(CC(F)F)Nc1cc(-c2cnc(NC(=O)C3CC3)cn2)ccc1C#N` (centres unmarked) [Example 8, N-(5-(4-cyano-3-((1-(dimethylamino)-4,4-difluoro-1-oxobutan-2-yl)amino)phenyl)pyrazin-2-yl)cyclopropanecarboxamide], the “TBK1 Inhibition (pIC50)” value is on record as 8.1.

Turning to `CC(O)CN(C)C(=O)CNc1cc(-c2cnc(NC(=O)C3CC3)cn2)ccc1C#N` (centres unmarked) [Example 134, N-(5-(4-cyano-3-((2-((2-hydroxypropyl)(methyl)amino)-2-oxoethyl)amino)phenyl)pyrazin-2-yl)cyclopropanecarboxamide], the “TBK1 Inhibition (pIC50)” value was 6.9.

`CC[C@H](Nc1cc(-c2cnc(NC(=O)C3CC3)cn2)cnc1C#N)C(=O)N(C)CC#N` [Example 51, (S)-N-(5-(6-cyano-5-((1-((cyanomethyl)(methyl)amino)-1-oxobutan-2-yl)amino)pyridin-3-yl)pyrazin-2-yl)cyclopropanecarboxamide]: the “TBK1 Inhibition (pIC50)” value is on record as 7.4.

Consider `C[C@H](Nc1cc(-c2cnc(NC(=O)C3CC3)cn2)ccc1C#N)C(=O)N1CCCC1` [Example 10, (S)-N-(5-(4-cyano-3-((1-oxo-1-(pyrrolidin-1-yl)propan-2-yl)amino)phenyl)pyrazin-2-yl)cyclopropanecarboxamide], for which the “TBK1 Inhibition (pIC50)” value was 7.3.

For the molecule `CC1CN(C(=O)CNc2cc(-c3cnc(NC(=O)C4CC4)cn3)cnc2C#N)CCO1` (centres unmarked) [Example 103, N-(5-(6-cyano-5-((2-(2-methylmorpholino)-2-oxoethyl)amino)pyridin-3-yl)pyrazin-2-yl)cyclopropanecarboxamide], the “TBK1 Inhibition (pIC50)” value is listed as 6.8.

Regarding `N#Cc1ccc(-c2cnc(NC(=O)C3CC3)cn2)cc1NCC(=O)N1CCCC1` [Example 125, N-(5-(4-cyano-3-((2-oxo-2-(pyrrolidin-1-yl)ethyl)amino)phenyl)pyrazin-2-yl)cyclopropanecarboxamide], the “TBK1 Inhibition (pIC50)” value came out at 7.3.

Regarding `N#Cc1ncc(-c2cnc(NC(=O)C3CC3)cn2)cc1NCC(=O)N1CCOCC1C#N` (centres unmarked) [Example 63, N-(5-(6-cyano-5-((2-(3-cyanomorpholino)-2-oxoethyl)amino)pyridin-3-yl)pyrazin-2-yl)cyclopropanecarboxamide], the “TBK1 Inhibition (pIC50)” value is 7.2.

As to `CC(C)NC(=O)[C@H](C)Nc1cc(-c2cnc(NC(=O)C3CC3)cn2)ccc1C#N` [Example 14, (S)-N-(5-(4-cyano-3-((1-(isopropylamino)-1-oxopropan-2-yl)amino)phenyl)pyrazin-2-yl)cyclopropanecarboxamide], the “TBK1 Inhibition (pIC50)” value worked out at 6.9.

`CN(C(=O)CNc1cc(-c2cnc(NC(=O)C3CC3)cn2)cnc1C#N)C1CCOC1` (centres unmarked) [Example 71, N-(5-(6-cyano-5-((2-(methyl(tetrahydrofuran-3-yl)amino)-2-oxoethyl)amino)pyridin-3-yl)pyrazin-2-yl)cyclopropanecarboxamide]: the “TBK1 Inhibition (pIC50)” value worked out at 6.6.

In the case of `C[C@H](Nc1cc(-c2cnc(NC(=O)[C@@H]3C[C@H]3C)cn2)cnc1C#N)C(=O)N(C)C` [Example 107, (1R,2R)-N-(5-(6-cyano-5-(((S)-1-(dimethylamino)-1-oxopropan-2-yl)amino)pyridin-3-yl)pyrazin-2-yl)-2-methylcyclopropanecarboxamide], the “TBK1 Inhibition (pIC50)” value was found to be 7.8.

In the case of `CC(CO)N(C)C(=O)CNc1cc(-c2cnc(NC(=O)C3CC3)cn2)ccc1C#N` (centres unmarked) [Example 133, N-(5-(4-cyano-3-((2-((1-hydroxypropan-2-yl)(methyl)amino)-2-oxoethyl)amino)phenyl)pyrazin-2-yl)cyclopropanecarboxamide], the “TBK1 Inhibition (pIC50)” value stood at 7.3.

Turning to `C[C@@H](Nc1cc(-c2cnc(NC(=O)C3CC3)cn2)cnc1C#N)C(=O)N(C)CC(F)F` [Example 83, (R)-N-(5-(6-cyano-5-((1-((2,2-difluoroethyl)(methyl)amino)-1-oxopropan-2-yl)amino)pyridin-3-yl)pyrazin-2-yl)cyclopropanecarboxamide], the “TBK1 Inhibition (pIC50)” value was found to be 7.0.

Regarding `CN(CC(F)(F)F)C(=O)CNc1cc(-c2cnc(NC(=O)C3CC3)cn2)cnc1C#N` [Example 40, N-(5-(6-cyano-5-((2-(methyl(2,2,2-trifluoroethyl)amino)-2-oxoethyl)amino)pyridin-3-yl)pyrazin-2-yl)cyclopropanecarboxamide], the “TBK1 Inhibition (pIC50)” value was found to be 7.5.

As to `N#Cc1ncc(-c2cnc(NC(=O)C3CC3)cn2)cc1NCC(N)=O` [Example 121, N-(5-(5-((2-amino-2-oxoethyl)amino)-6-cyanopyridin-3-yl)pyrazin-2-yl)cyclopropanecarboxamide], the “TBK1 Inhibition (pIC50)” value turned out to be 5.6.

As for `C[C@H](Nc1cc(-c2cnc(NC(=O)C3CC3)cn2)cnc1C#N)C(=O)N(C)c1cccnc1` [Example 74, (S)-N-(5-(6-cyano-5-((1-(methyl(pyridin-3-yl)amino)-1-oxopropan-2-yl)amino)pyridin-3-yl)pyrazin-2-yl)cyclopropanecarboxamide], the “TBK1 Inhibition (pIC50)” value was found to be 5.5.

For `CC(C#N)NC(=O)[C@H](C)Nc1cc(-c2cnc(NC(=O)C3CC3)cn2)cnc1C#N` (stereo partly drawn) [Example 62, N-(5-(6-cyano-5-(((2S)-1-((1-cyanoethyl)amino)-1-oxopropan-2-yl)amino)pyridin-3-yl)pyrazin-2-yl)cyclopropanecarboxamide], the “TBK1 Inhibition (pIC50)” value is given as 6.6.

For `C[C@@H](Nc1cc(-c2cnc(NC(=O)C3CC3)cn2)cnc1C#N)C(=O)N(C)C` [Example 30, (R)-N-(5-(6-cyano-5-((1-(dimethylamino)-1-oxopropan-2-yl)amino)pyridin-3-yl)pyrazin-2-yl)cyclopropanecarboxamide], the “TBK1 Inhibition (pIC50)” value turned out to be 5.8.
